According to patent publication US8987193B2, “Nisin derivatives and the use thereof” (University College Cork—National University of Ireland, Cork, priority 2008, dated 2015):
“Also recorded” adds a separate entry of the source. Ends that are not written are not given here.

Key:
Staph. aureus DPC5245 = test: Deferred antagonism assay; type: cell-based; settings: producing strain; diameter of zone minus 5 mm; average of duplicates; St. aureus DPC5245
Method: (§1) Deferred antagonism assays were performed by replicating strains on GM17 or GM17 x-gal agar plates and allowing them to grow overnight before overlaying with either GM17/BHI/TS/MH agar (0.75% w/v agar) seeded with the appropriate indicator strain. Zone size was calculated as the diameter of the zone of clearing minus the diameter of bacterial growth (5 mm) For higher throughput screening of N20PXX, XM21VX, XXK22T and XXX banks deferred antagonism assays were performed by replicating strains using a 96 pin replicator (Boekel) or spotting 5 μl of a fresh overnight culture on GM17 agar plates and allowing them to grow overnight. […] Additional sets of indicators were employed to further assess/reassess the bioactivity of a number of strains. […] For well-diffusion assays molten agar was cooled to 48° C. and seeded with the appropriate indicator strain. The inoculated medium was rapidly transferred into sterile Petri plates in 50 ml volumes, allowed to solidify and dried. Wells (4.6 mm in diameter) were then made in the seeded plates. Purified nisin and mutant nisins were resuspended in 0.005% acetic acid, serially diluted, 50 μl volumes were dispensed into the aforementioned wells and the plates incubated at 37° C. overnight. Bioactivity was expressed as arbitrary units/ml (AU/ml) and calculated as the reciprocal of the highest dilution that gave a definite zone multiplied by the conversion factor (i.e. 20 when 50 μl was used) (Ryan et al., 1996).
(§2) As a consequence of the enhanced activities of K22T and K22S, a more in-depth investigation of this region was carried out. Saturation mutagenesis was undertaken to create a bank of nisin A hinge derivatives containing the vast majority of possible amino acid substitutions for each position. Although pPTPL was used successfully for random mutagenesis, its relatively large size of approx 10.5 kb was considered unsuitable for the complete plasmid PCR amplification approach utilized for saturation mutagenesis. A smaller (approx 6 kb) E. coli-L. lactis shuttle vector pCI372 was considered to be potentially more useful. Its suitability with respect to the in trans expression of nisA was confirmed by the ability of pDFO5 to restore the nisin positive phenotype. Saturation mutagenesis was performed on each codon using pDF05 and oligonucleotides (Table 5) that replace the specific codon with a NNK triplet, potentially encoding all 20 standard amino acids. Following complete plasmid amplification and introduction into the intermediate Top10 host, sequence analysis of a pooled bank of pDF05 derivatives confirmed randomization. Introduction of these variants into L. lactis NZ9800 allowed the expression of mutant nisin A peptides for further analysis. […] 46 residue conversions were isolated. All strains, regardless of bioactivity, were assessed with a view to comprehensively assessing the consequences of each individual hinge alteration.
(§3) Values are an average of duplicate experiments and represent zone size (diameter of zone minus diameter of bacterial growth (i.e. 5 mm) relative to that of the NZ9800 pCI372nisA control. X=Mutants not identified.

[1] = test system: Staph. aureus ST528 (MRSA); test: Deferred antagonism assay; type: cell-based; settings: producing strain, diameter of zone minus diameter of bacterial growth (5 mm), average of duplicates
Method: as §1, §2, §3

[2] = test system: Strep. agalactiae ATCC13813; test: Deferred antagonism assay; type: cell-based; settings: producing strain, diameter of zone minus 5 mm, average of duplicates
Method: as §1, §2, §3

L. monocytogenes CBC1 = test: Deferred antagonism assay; type: cell-based, Listeria monocytogenes; design: key: + = Enhanced bioactivity relative to control; − = Bioactivity equal to or less than control; NA = no activity evident; settings: producing strain; L. mono CBC1
Procedure, shortened: (§4)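 L. lactis NZ9800 strains expressing nisin A hinge variants were replicated or spotted on GM17 agar, grown overnight, then overlaid with 0.75% w/v agar seeded with indicator. Zone size is the clearing diameter minus 5 mm colony growth.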

L. monocytogenes CBC2 = test: Deferred antagonism assay; type: cell-based, Listeria monocytogenes; design: key: + = Enhanced bioactivity relative to control; − = Bioactivity equal to or less than control; NA = no activity evident; settings: producing strain; L. mono CBC2
Procedure, shortened: as §4

L. monocytogenes CBC3 = test: Deferred antagonism assay; type: cell-based, Listeria monocytogenes; design: key: + = Enhanced bioactivity relative to control; − = Bioactivity equal to or less than control; NA = no activity evident; settings: producing strain; L. mono CBC3
Procedure, shortened: as §4

L. lactis CBC7 = test: Deferred antagonism assay; type: cell-based; design: key: + = Enhanced bioactivity relative to control; − = Bioactivity equal to or less than control; NA = no activity evident; settings: producing strain
Procedure, shortened: as §4

L. lactis CBC8 = test: Deferred antagonism assay; type: cell-based; design: key: + = Enhanced bioactivity relative to control; − = Bioactivity equal to or less than control; NA = no activity evident; settings: producing strain
Procedure, shortened: as §4

S. aureus CBC4 = test: Deferred antagonism assay; type: cell-based; design: key: + = Enhanced bioactivity relative to control; − = Bioactivity equal to or less than control; NA = no activity evident; settings: producing strain
Procedure, shortened: as §4

C. sporogenes CBC5 = test: Deferred antagonism assay; type: cell-based, Clostridium sporogenes; design: key: + = Enhanced bioactivity relative to control; − = Bioactivity equal to or less than control; NA = no activity evident; settings: producing strain
L. plantarum CBC6 = test: Deferred antagonism assay; type: cell-based, Lactobacillus plantarum; design: key: + = Enhanced bioactivity relative to control; − = Bioactivity equal to or less than control; NA = no activity evident; settings: producing strain
Procedure, shortened: as §4

indicator strains = test: Deferred antagonism assays, various indicator strains (summary); type: cell-based; settings: for Strain(s) against which the derivative (producing strain) displays enhanced bioactivity: relative to nisin A-producing control, value = strains listed
Procedure, shortened: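 Producer strains were replicated on GM17 or GM17 x-gal agar, grown overnight, then overlaid with GM17, BHI, TS or MH soft agar (0.75% w/v) seeded with the indicator strain. Zone size was taken as the clearing diameter minus the diameter of bacterial growth (5 mm).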

Substance | zone size relative to that of the NZ9800 pCI372nisA control (Staph. aureus DPC5245) [%] | zone size relative to that of the NZ9800 pCI372nisA control [1] [%] | zone size relative to that of the NZ9800 pCI372nisA control [2] [%] | Bioactivity relative to control (L. monocytogenes CBC1) | Bioactivity relative to control (L. monocytogenes CBC2) | Bioactivity relative to control (L. monocytogenes CBC3) | Bioactivity relative to control (L. lactis CBC7) | Bioactivity relative to control (L. lactis CBC8) | Bioactivity relative to control (S. aureus CBC4) | Bioactivity relative to control (C. sporogenes CBC5) | Bioactivity relative to control (L. plantarum CBC6) | bioactivity of the producing strain, in words (indicator strains; in general / against the strains tested) | Strain(s) against which the derivative (producing strain) displays enhanced bioactivity (indicator strains)
K22F: nisin A derivative, hinge substitution K22F (ITSISLCTPGCKTGALMGCNMFTATCHCSIHVSK; cysteine pairing not given here; also: lantibiotic nisin-A; UniProt P13068 24-57, looked up, variant K22F) | 56 | 29 | 57 | − | − | − | − | − | − | − | − |  | 
K22H: nisin A derivative, hinge substitution K22H (ITSISLCTPGCKTGALMGCNMHTATCHCSIHVSK; cysteine pairing not given here; also: lantibiotic nisin-A; UniProt P13068 24-57, looked up, variant K22H) | 97 | 97 | 104 | − | − | − | − | − | − | − | − |  | 
M21F: nisin A derivative, hinge substitution M21F (ITSISLCTPGCKTGALMGCNFKTATCHCSIHVSK; cysteine pairing not given here; also: lantibiotic nisin-A; UniProt P13068 24-57, looked up, variant M21F) | 21.5 | 20 | 0 | − | − | − | − | − | − | − | − |  | 
N20I: nisin A derivative, hinge substitution N20I (ITSISLCTPGCKTGALMGCIMKTATCHCSIHVSK; cysteine pairing not given here; also: lantibiotic nisin-A; UniProt P13068 24-57, looked up, variant N20I) | 49 |  | 61 | − | − | − | − | − | − | − | − | retention of relatively high levels of bioactivity | 
N20W: nisin A derivative, hinge substitution N20W (ITSISLCTPGCKTGALMGCWMKTATCHCSIHVSK; cysteine pairing not given here; also: lantibiotic nisin-A; UniProt P13068 24-57, looked up, variant N20W) |  | 5.4 | 0 | − | − | − | − | − | − | − | − |  | 
NisinA M21Y (ITSISLCTPGCKTGALMGCNYKTATCHCSIHVSK; not fully specified; also: lantibiotic: lanthionine rings and dehydro residues not placed; UniProt P13068 24-57, looked up, variant M21Y) [nisin A derivative, hinge substitution M21Y] |  |  | 65 | − | + | + | + | − | + | + | − |  | L. monocytogenes CBC2 and CBC3 as well as Staph. aureus CBC4, C. sporogenes CBC5 and L. lactis CBC7; also recorded: L. monocytogenes CBC2, CBC3, S. aureus CBC4, C. sporogenes CBC5 and L. lactis 7
NisinA N20T (ITSISLCTPGCKTGALMGCTMKTATCHCSIHVSK; not fully specified; also: lantibiotic nisin: dehydrated residues and thioether rings not placed; UniProt P13068 24-57, looked up, variant N20T) [nisin A derivative, hinge substitution N20T] | 90 | 79 |  | − | − | − | − | − | − | + | − |  | C. sporogenes CBC5
